Laboratory results: PubChem BioAssay (NCI)
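Each compound was tested at five concentrations against cells in 96-well plates for 48 hours. GI50 marks 50% less growth. The concentration for full growth arrest is given as TGI.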

Tests used:
Assay in all cases: NCI anticancer screen, dose series, 48 h
MOLT-4 leukemia = system: MOLT-4 leukemia
UACC-257 melanoma = system: UACC-257 melanoma
TK-10 renal = system: TK-10 renal
SR leukemia = system: SR leukemia
HL-60(TB) leukemia = system: HL-60(TB) leukemia
OVCAR-5 ovarian = system: OVCAR-5 ovarian
IGROV1 ovarian = system: IGROV1 ovarian
UACC-62 melanoma = system: UACC-62 melanoma
A498 renal = system: A498 renal
RXF 393 renal = system: RXF 393 renal
HS 578T breast = system: HS 578T breast
LOX IMVI melanoma = system: LOX IMVI melanoma
BT-549 breast = system: BT-549 breast
RPMI-8226 leukemia = system: RPMI-8226 leukemia
KM12 colon = system: KM12 colon
NCI-H460 lung = system: NCI-H460 lung
UO-31 renal = system: UO-31 renal
CAKI-1 renal = system: CAKI-1 renal
SF-539 CNS = system: SF-539 CNS
HOP-92 NSCLC = system: HOP-92 NSCLC
SNB-75 CNS = system: SNB-75 CNS
HCT-15 colon = system: HCT-15 colon
T-47D breast = system: T-47D breast
SW-620 colon = system: SW-620 colon
OVCAR-3 ovarian = system: OVCAR-3 ovarian
HOP-62 NSCLC = system: HOP-62 NSCLC
NCI-H23 lung = system: NCI-H23 lung
OVCAR-8 ovarian = system: OVCAR-8 ovarian
A549 NSCLC = system: A549 NSCLC
MCF7 breast = system: MCF7 breast
PC-3 prostate = system: PC-3 prostate
MALME-3M melanoma = system: MALME-3M melanoma
CCRF-CEM leukemia = system: CCRF-CEM leukemia
SK-MEL-5 melanoma = system: SK-MEL-5 melanoma
SK-OV-3 ovarian = system: SK-OV-3 ovarian
786-0 renal = system: 786-0 renal
HCC-2998 colon = system: HCC-2998 colon
ACHN renal = system: ACHN renal
HCT-116 colon = system: HCT-116 colon
OVCAR-4 ovarian = system: OVCAR-4 ovarian
MDA-MB-231 breast = system: MDA-MB-231 breast
HT29 colon = system: HT29 colon
DU-145 prostate = system: DU-145 prostate
NCI/ADR-RES ovarian = system: NCI/ADR-RES ovarian
SF-295 CNS = system: SF-295 CNS
SF-268 CNS = system: SF-268 CNS
COLO 205 colon = system: COLO 205 colon
SK-MEL-28 melanoma = system: SK-MEL-28 melanoma
MDA-MB-435 = system: MDA-MB-435
M14 melanoma = system: M14 melanoma
K-562 leukemia = system: K-562 leukemia
EKVX NSCLC = system: EKVX NSCLC
U251 CNS = system: U251 CNS
NCI-H226 lung = system: NCI-H226 lung
SN12C renal = system: SN12C renal
SNB-19 CNS = system: SNB-19 CNS
SK-MEL-2 melanoma = system: SK-MEL-2 melanoma

## Cc1ccc(O)c(NC(=O)c2ccc(CNc3ccnc(C(F)(F)F)c3)cc2)c1
MOLT-4 leukemia
  GI50: 1.77 µM
  TGI: 20.6 µM
UACC-257 melanoma
  GI50: 12.2 µM
  TGI: 48.5 µM
TK-10 renal
  GI50: 10.8 µM
  TGI: 40.1 µM
SR leukemia
  GI50: 5.1 µM
  TGI: 30 µM
HL-60(TB) leukemia
  GI50: 1.21 µM
  TGI: 14.8 µM
OVCAR-5 ovarian
  GI50: 16.3 µM
  TGI: 69.1 µM
IGROV1 ovarian
  GI50: 1.82 µM
  TGI: 16.4 µM
UACC-62 melanoma
  GI50: 1.07 µM
  TGI: 13.4 µM
A498 renal
  GI50: 14.3 µM
  TGI: 37.6 µM
RXF 393 renal
  GI50: 25.4 µM
  TGI: 63.1 µM
HS 578T breast
  GI50: 11.2 µM
  TGI: 42.8 µM
LOX IMVI melanoma
  GI50: 5.64 µM
  TGI: 31.4 µM
BT-549 breast
  GI50: 3.48 µM
  TGI: 28.4 µM
RPMI-8226 leukemia
  GI50: 2.64 µM
  TGI: 11.3 µM
KM12 colon
  GI50: 4.75 µM
  TGI: 24.3 µM
NCI-H460 lung
  GI50: 3.7 µM
  TGI: 21.9 µM
UO-31 renal
  GI50: 1.12 µM
  TGI: 13.3 µM
CAKI-1 renal
  GI50: 6.33 µM
  TGI: 40.6 µM
SF-539 CNS
  GI50: 4.16 µM
  TGI: 20.9 µM
HOP-92 NSCLC
  GI50: 5.11 µM
  TGI: 29.8 µM
SNB-75 CNS
  GI50: 22.5 µM
  TGI: 90.3 µM
HCT-15 colon
  GI50: 5.19 µM
  TGI: 76.3 µM
T-47D breast
  GI50: 1.74 µM
  TGI: 17.7 µM
SW-620 colon
  GI50: 8.7 µM
  TGI: 42.4 µM
OVCAR-3 ovarian
  GI50: 11.3 µM
  TGI: 28.2 µM
HOP-62 NSCLC
  GI50: 4.79 µM
  TGI: 30.5 µM
NCI-H23 lung
  GI50: 10.6 µM
  TGI: 53.3 µM
OVCAR-8 ovarian
  GI50: 15.9 µM
  TGI: > 100 µM
A549 NSCLC
  GI50: 12.9 µM
  TGI: > 100 µM
MCF7 breast
  GI50: 4.06 µM
  TGI: 38.9 µM
PC-3 prostate
  GI50: 9.5 µM
  TGI: 38 µM
MALME-3M melanoma
  GI50: 2.53 µM
  TGI: 22.1 µM
CCRF-CEM leukemia
  GI50: 0.496 µM
  TGI: 17.7 µM
SK-MEL-5 melanoma
  GI50: 4.07 µM
  TGI: 14.7 µM
SK-OV-3 ovarian
  GI50: 3.87 µM
  TGI: 36.7 µM
786-0 renal
  GI50: 5.2 µM
  TGI: 47.7 µM
HCC-2998 colon
  GI50: 7.45 µM
  TGI: 23.2 µM
ACHN renal
  GI50: 3.66 µM
  TGI: > 100 µM
HCT-116 colon
  GI50: 13.7 µM
  TGI: 37.4 µM
OVCAR-4 ovarian
  GI50: 26.7 µM
  TGI: > 100 µM
MDA-MB-231 breast
  GI50: 3.36 µM
  TGI: 47.2 µM
HT29 colon
  GI50: 23.1 µM
  TGI: > 100 µM
DU-145 prostate
  GI50: 12.8 µM
  TGI: 39.4 µM
NCI/ADR-RES ovarian
  GI50: 4.68 µM
  TGI: 37.8 µM
SF-295 CNS
  GI50: 1.35 µM
  TGI: 12.2 µM
SF-268 CNS
  GI50: 10.8 µM
  TGI: 38 µM
COLO 205 colon
  GI50: 5.57 µM
  TGI: 20.1 µM
SK-MEL-28 melanoma
  GI50: 13.8 µM
  TGI: 39.9 µM
MDA-MB-435
  GI50: 4.26 µM
  TGI: 22.1 µM
M14 melanoma
  GI50: 5 µM
  TGI: 24.2 µM
K-562 leukemia
  GI50: 1.54 µM
  TGI: 17.9 µM
EKVX NSCLC
  GI50: 4.04 µM
  TGI: 34.9 µM
U251 CNS
  GI50: 23.5 µM
  TGI: > 100 µM
NCI-H226 lung
  GI50: 4.52 µM
  TGI: 38.8 µM
SN12C renal
  GI50: 4.23 µM
  TGI: > 100 µM
SNB-19 CNS
  GI50: 6.15 µM
  TGI: 48 µM

## C=CCc1cccc2cc(C(=O)Nc3ccccn3)c(=N)oc12
MOLT-4 leukemia
  TGI: > 100 µM
UACC-257 melanoma
  TGI: > 100 µM
SR leukemia
  TGI: > 100 µM
HL-60(TB) leukemia
  TGI: > 100 µM
OVCAR-5 ovarian
  TGI: > 100 µM
IGROV1 ovarian
  TGI: > 100 µM
UACC-62 melanoma
  TGI: > 100 µM
A498 renal
  TGI: > 100 µM
RXF 393 renal
  TGI: > 100 µM
HS 578T breast
  TGI: > 100 µM
LOX IMVI melanoma
  TGI: > 100 µM
BT-549 breast
  TGI: > 100 µM
RPMI-8226 leukemia
  TGI: > 100 µM
KM12 colon
  TGI: > 100 µM
NCI-H460 lung
  TGI: > 100 µM
CAKI-1 renal
  TGI: > 100 µM
SF-539 CNS
  TGI: > 100 µM
HOP-92 NSCLC
  TGI: > 100 µM
SNB-75 CNS
  TGI: > 100 µM
HCT-15 colon
  TGI: > 100 µM
T-47D breast
  TGI: > 100 µM
SW-620 colon
  TGI: > 100 µM
OVCAR-3 ovarian
  TGI: > 100 µM
HOP-62 NSCLC
  TGI: > 100 µM
NCI-H23 lung
  TGI: > 100 µM
OVCAR-8 ovarian
  TGI: > 100 µM
A549 NSCLC
  TGI: > 100 µM
MCF7 breast
  TGI: > 100 µM
PC-3 prostate
  TGI: > 100 µM
CCRF-CEM leukemia
  TGI: > 100 µM
SK-MEL-5 melanoma
  TGI: > 100 µM
SK-OV-3 ovarian
  TGI: > 100 µM
786-0 renal
  TGI: > 100 µM
HCC-2998 colon
  TGI: > 100 µM
ACHN renal
  TGI: > 100 µM
HCT-116 colon
  TGI: > 100 µM
OVCAR-4 ovarian
  TGI: > 100 µM
MDA-MB-231 breast
  TGI: > 100 µM
HT29 colon
  TGI: > 100 µM
DU-145 prostate
  TGI: > 100 µM
NCI/ADR-RES ovarian
  TGI: > 100 µM
SF-268 CNS
  TGI: > 100 µM
COLO 205 colon
  TGI: > 100 µM
SK-MEL-28 melanoma
  TGI: > 100 µM
MDA-MB-435
  TGI: > 100 µM
M14 melanoma
  TGI: > 100 µM
K-562 leukemia
  TGI: > 100 µM
U251 CNS
  TGI: > 100 µM
SK-MEL-2 melanoma
  TGI: > 100 µM
NCI-H226 lung
  TGI: > 100 µM
SN12C renal
  TGI: > 100 µM
SNB-19 CNS
  TGI: > 100 µM
